According to ChEMBL document CHEMBL3400010, “Cytotoxic and antioxidant constituents from the leaves of Psidium guajava” (Bioorg Med Chem Lett, 2015):
≈ marks a conversion by molar mass, not a printed value.

How the values were obtained:
[1] = Antioxidant activity assessed as FRAP values at 12.5 ug/ml incubated at 37 degC for 5 mins by FeSO4.7H2O calibration curve based method; assay type: physicochemical
[2] = Antioxidant activity assessed as FRAP values at 50 ug/ml incubated at 37 degC for 5 mins by FeSO4.7H2O calibration curve based method; assay type: physicochemical
[3] = system: HeLa; test: Cytotoxicity against human HeLa cells by MTT assay; assay type: functional, cell-based
[4] = Cytotoxicity against human SGC7901 cells by MTT assay; assay type: functional, cell-based; details: SGC-7901
[5] = system: A549; test: Cytotoxicity against human A549 cells by MTT assay; assay type: functional, cell-based
[6] = Antioxidant activity assessed as FRAP values at 25 ug/ml incubated at 37 degC for 5 mins by FeSO4.7H2O calibration curve based method; assay type: physicochemical
[7] = Antioxidant activity assessed as ABTS radical scavenging activity after 15 mins; assay type: physicochemical
[8] = Antioxidant activity assessed as DPPH radical scavenging activity after 30 mins by microplate reader based assay; assay type: physicochemical
[9] = Antioxidant activity assessed as FRAP values at 100 ug/ml incubated at 37 degC for 5 mins by FeSO4.7H2O calibration curve based method; assay type: physicochemical

| SMILES | Activity [1] | Activity [2] | Activity [6] | IC50 [7] | IC50 [8] | Activity [9] | IC50 [3] | IC50 [4] | IC50 [5] |
| --- | --- | --- | --- | --- | --- | --- | --- | --- | --- |
| Cc1c(O)cc(O[C@@H]2O[C@H](CO)[C@@H](O)[C@H](O)[C@H]2O)c(C(=O)c2ccccc2)c1O |  |  |  | 29.27 µg/mL (≈ 72 µM) | > 100 µg/mL |  | > 10 µg/mL | > 10 µg/mL | > 10 µg/mL |
| Cc1c(O)c(C)c(O[C@@H]2O[C@H](CO)[C@@H](O)[C@H](O)[C@H]2O)c(C(=O)c2ccccc2)c1O | 11.54 µmol/L | 23.73 µmol/L | 14 µmol/L | 32.97 µg/mL (≈ 78.4 µM) | > 100 µg/mL | 46.37 µmol/L | > 10 µg/mL | > 10 µg/mL | > 10 µg/mL |
| C/C(=C/O[C@@H]1O[C@H](COC(=O)c2cc(O)c(O)c(O)c2)[C@@H](O)[C@H](O)[C@H]1O)C(=O)O | 70.64 µmol/L | 263.31 µmol/L | 152.02 µmol/L | 5.93 µg/mL (≈ 14.2 µM) | 13.1 µg/mL (≈ 31.5 µM) | 413.94 µmol/L | 3.51 µg/mL (≈ 8.44 µM) | 3.73 µg/mL (≈ 8.96 µM) | 7.01 µg/mL (≈ 16.8 µM) |
| O=C1O[C@H]([C@@H](O)CO)C(O)=C1O [ASCORBIC ACID] | 149.97 µmol/L | 396.76 µmol/L | 292.1 µmol/L | 8.53 µg/mL (≈ 48.4 µM) | 16.3 µg/mL (≈ 92.5 µM) | 442.43 µmol/L |  |  |  |
| COc1cccc2c1C(=O)c1c(O)c3c(c(O)c1C2=O)C[C@@](O)(C(=O)CO)C[C@@H]3O[C@H]1C[C@H](N)[C@H](O)[C@H](C)O1 [DOXORUBICIN] |  |  |  |  |  |  | 2.68 µg/mL (≈ 4.94 µM) | 1.36 µg/mL (≈ 2.5 µM) | 3.12 µg/mL (≈ 5.74 µM) |
| O=c1c(O[C@@H]2OC[C@H](O)[C@H](O)[C@H]2O)c(-c2ccc(O)c(O)c2)oc2cc(O)cc(O)c12 [GUAJAVERIN] | 57.21 µmol/L | 220.51 µmol/L | 175.59 µmol/L | 6.7 µg/mL (≈ 15.4 µM) | 13.43 µg/mL (≈ 30.9 µM) | 346.45 µmol/L | > 10 µg/mL | > 10 µg/mL | > 10 µg/mL |
| O=c1c(O)c(-c2ccc(O)c(O)c2)oc2cc(O)cc(O)c12 [QUERCETIN] | 333.26 µmol/L | 379.4 µmol/L | 359.18 µmol/L | 4.4 µg/mL (≈ 14.6 µM) | 11 µg/mL (≈ 36.4 µM) | 401.27 µmol/L | 8.26 µg/mL (≈ 27.3 µM) | 7.88 µg/mL (≈ 26.1 µM) | > 10 µg/mL |

Now from value to compound, other results behind:

| Activity [1] | Activity [2] | Activity [6] | IC50 [7] | IC50 [8] | Activity [9] | SMILES | IC50 [3] | IC50 [4] | IC50 [5] |
| --- | --- | --- | --- | --- | --- | --- | --- | --- | --- |
| 91.28 µmol/L | 250.53 µmol/L | 143.76 µmol/L | 5.47 µg/mL (≈ 10.9 µM) | 13.07 µg/mL (≈ 26 µM) | 386.38 µmol/L | O=C(OC[C@H]1O[C@@H](Oc2cc(-c3ccccc3)oc(=O)c2)[C@H](O)[C@@H](O)[C@@H]1O)c1cc(O)c(O)c(O)c1 | 3.25 µg/mL (≈ 6.46 µM) | 4.28 µg/mL (≈ 8.51 µM) | 7.29 µg/mL (≈ 14.5 µM) |
| 18.46 µmol/L | 131.03 µmol/L | 53.29 µmol/L | 13.63 µg/mL (≈ 25 µM) | 37.93 µg/mL (≈ 69.7 µM) | 174.6 µmol/L | O=C(OC[C@H]1O[C@@H](Oc2cc(O)c(C(=O)c3ccccc3)c(O)c2)[C@H](O)[C@@H](O)[C@@H]1O)c1cc(O)c(O)c(O)c1 | > 10 µg/mL | > 10 µg/mL | > 10 µg/mL |
| 48.3 µmol/L | 185.03 µmol/L | 90.63 µmol/L | 8.3 µg/mL (≈ 14.5 µM) | 28.33 µg/mL (≈ 49.5 µM) | 341.94 µmol/L | Cc1c(O)c(C(=O)c2ccccc2)c(O)c(C)c1O[C@@H]1O[C@H](COC(=O)c2cc(O)c(O)c(O)c2)[C@@H](O)[C@H](O)[C@H]1O | > 10 µg/mL | > 10 µg/mL | > 10 µg/mL |
| 123.88 µmol/L | 291.63 µmol/L | 269 µmol/L | 6.9 µg/mL (≈ 15.9 µM) | 16.13 µg/mL (≈ 37.1 µM) | 324.58 µmol/L | O=c1c(O[C@@H]2O[C@@H](CO)[C@H](O)[C@H]2O)c(-c2ccc(O)c(O)c2)oc2cc(O)cc(O)c12 [AVICULARIN] | > 10 µg/mL | > 10 µg/mL | > 10 µg/mL |
| 68.06 µmol/L | 287.94 µmol/L | 155.89 µmol/L | 10.57 µg/mL (≈ 22.8 µM) | 27.03 µg/mL (≈ 58.2 µM) | 329.68 µmol/L | O=c1c(O[C@@H]2O[C@H](CO)[C@H](O)[C@H](O)[C@H]2O)c(-c2ccc(O)c(O)c2)oc2cc(O)cc(O)c12 [HYPEROSIDE] | > 10 µg/mL | > 10 µg/mL | > 10 µg/mL |
